Assay type in all cases: cell-based
One assay concerns P. aeruginosa. Briefly: in vitro agar Petri dish dilution test, P. aeruginosa. Conditions: Pseudomonas aeruginosa, 100% growth inhibition. The source says:
(§1) The compound has antimicrobial utility.

The test system of the next assay is S. aureus. Briefly: in vitro agar Petri dish dilution test, S. aureus. Conditions: Staphylococcus aureus, 100% growth inhibition.
From the text: as §1

In the next assay the test system is C. albicans. Briefly: in vitro agar Petri dish dilution test, C. albicans. Conditions: Candida albicans, 100% growth inhibition.
From the text: as §1

A further assay has as its system T. mentagrophytes. Briefly: in vitro agar Petri dish dilution test, T. mentagrophytes. Conditions: Trichophyton mentagrophytes, 100% growth inhibition.
From the text: as §1

In assay [1] the test system is K. pneumoniae M-1 Midland Hospital. Briefly: in vitro agar Petri dish dilution test, K. pneumoniae M-1 Midland Hospital. Conditions: Klebsiella pneumoniae, 100% growth inhibition.
From the text: as §1

The subject of a further assay is P. chrysogenum. Briefly: in vitro agar Petri dish dilution test, P. chrysogenum. Conditions: Penicillium chrysogenum, 100% growth inhibition.
From the text: as §1

For another assay, the system named is A. niger. Briefly: in vitro agar Petri dish dilution test, A. niger. Conditions: Aspergillus niger, 100% growth inhibition.
From the text: as §1

Another assay deals with B. subtilis. In words: in vitro agar Petri dish dilution test, B. subtilis. Conditions: Bacillus subtilis, 100% growth inhibition.
From the text: as §1

The test system of a further assay is C. pelliculosa. Briefly: in vitro agar Petri dish dilution test, C. pelliculosa. Conditions: Hansenula anomala, 100% growth inhibition.
From the text: as §1

In a further assay the test system is P. pullulans. In words: in vitro agar Petri dish dilution test, P. pullulans. Conditions: 100% growth inhibition.
From the text: as §1

The test system of assay [2] is Trichoderm Sp. Madison P-42. In words: in vitro agar Petri dish dilution test, Trichoderm Sp. Madison P-42. Conditions: 100% growth inhibition.
From the text: as §1

The next assay relates to S. marcescens NIH. Briefly: in vitro agar Petri dish dilution test, S. marcescens NIH. Conditions: Serratia marcescens, 100% growth inhibition.
From the text: as §1

Another assay concerns Torulopsis Species. In words: in vitro agar Petri dish dilution test, Torulopsis Species. Conditions: 100% growth inhibition.
From the text: as §1

A further assay has as its system A. fumigatus. Briefly: in vitro agar Petri dish dilution test, A. fumigatus. Conditions: Aspergillus fumigatus, 100% growth inhibition.
From the text: as §1

A further assay has as its system C. albicans NIH. Briefly: in vitro agar Petri dish dilution test, C. albicans NIH. Conditions: Candida albicans, 100% growth inhibition.
From the text: as §1

The next assay has as its system E. coli ATCC 11229. Briefly: in vitro agar Petri dish dilution test, E. coli ATCC 11229. Conditions: Escherichia coli, ATCC11229, 100% growth inhibition.
From the text: as §1

Structures are written as SMILES. Values after ≈ are worked out from the molar mass of the structure shown.

Usually MIC stands for the smallest concentration in the dilution series that meets the test's criterion for growth inhibition. Read a high MIC as a need for much substance. In the case of `N#CC=CS(=O)(=O)c1ccc(OC(F)(F)C(Cl)Cl)cc1` [3-((4-(2,2-Dichloro-1,1-difluoroethoxy)phenyl)sulfonyl)-2-propenenitrile], the MIC came out at 100 µg/mL (≈ 292 µM) against P. aeruginosa; 5 µg/mL (≈ 14.6 µM) against S. aureus; 50 µg/mL (≈ 146 µM) against C. albicans; 10 µg/mL (≈ 29.2 µM) against T. mentagrophytes; 100 µg/mL (≈ 292 µM) in assay [1]; 10 µg/mL (≈ 29.2 µM) in the assay on P. chrysogenum. In addition, the MIC in the assay on A. niger was 10 µg/mL (≈ 29.2 µM); in the assay on B. subtilis, 1 µg/mL (≈ 2.92 µM); in the assay on C. pelliculosa, 10 µg/mL (≈ 29.2 µM); against P. pullulans, 50 µg/mL (≈ 146 µM); in [2] it was 100 µg/mL (≈ 292 µM); with S. marcescens NIH, 50 µg/mL (≈ 146 µM). Further, the MIC against Torulopsis Species, with A. fumigatus, in the assay on C. albicans NIH and in the assay with E. coli ATCC 11229 was 50 µg/mL (≈ 146 µM) throughout.

The values above are taken from US4049696A, “3-((4-(2,2-Dichloro-1,1-difluoroethoxy)phenyl)sulfonyl)-2-propenenitrile” (The Dow Chemical Company, priority 1977, dated 1977).
